According to patent US8389019B2, “Method for improving the quality of meat by reducing boar taint” (priority 2007, dated 2013):
Marks after values point to notes of the source that are not given here.

Legend:
[1] = system: testes of male Beagle puppies; assay: Example 5: quantitative evaluation of testis histopathology; assay type: in vivo, Beagle dog; conditions: n = 10
Method: (§1) Forty (40) healthy, male Beagle puppies, six months of age, were divided into the following four groups according to testicular width.
Quantitative information provides the strongest evidence that control and treated tissues are either alike or different. In order to obtain the very detailed information about the testes after dorsal cranial injection, quantitative evaluation of the testes histopathology was performed in 40 dogs post-injection.

[2] = system: testes of sexually mature male dogs; assay: Example 7: semen evaluation of 53 sexually mature male dogs; assay type: in vivo, dog; conditions: six months post-injection, one of 53 dogs
Method: Dosage was based on testicular width according to the following table.
Semen analysis of all dogs prior to injection indicated normal fertility parameters. All of the dogs were followed for six months post-injection, and semen analysis was performed at 2 month intervals for a total of three times.

[3] = system: testes of Sprague Dawley male rats; assay: Example 4: infertility/sterility in rats, dorsal cranial vs midline injection, histopathology of epididymides and testes; assay type: in vivo, rat; conditions: 0.1 ml 10% per testis; for infertility/sterility achieved, share of rats: two months post-injection, 10 rats
Method: Twenty (20) Sprague Dawley, male rats were divided into two groups of ten (10) rats per group. […] Two months post-injection, both groups were sacrificed, and all of the epididymides and testes were evaluated by histopathology.

male Beagle puppies = assay: Example 5: exposure of treated dogs to females in heat (copulation, pregnancy); assay type: in vivo, Beagle dog; conditions: for number of the ten dogs that copulated with females: each dog exposed to three females in heat
Source text: as §1
Of the ten control placebo dogs, seven copulated with females and pregnancy occurred in all of the females (100% pregnancy rate). Each of the treated dogs was exposed to three different females in heat.

[4] = Example 5: body homeostasis, clinical observations and testicular measurement in Beagle puppies; assay type: in vivo, Beagle dog; conditions: 25, 30 or 35 mg per testis
Method: as §1
The body weight of all dogs increased.
(§2) As compared to the control placebo group, serum testosterone level at twelve (12) months post-injection had (1) decreased by 43% in the 25 mg treated group, (2) decreased by 55% in the 30 mg treated group, and (3) decreased by 52% in the 35 mg treated group.

testes of male puppies = assay: Example 6: clinical trial in 225 male puppies at five sites, semen analysis and physical examination; assay type: in vivo, dog
Method: Four hundred fifty (450) intratesticular injections were performed in the dorsal cranial area of the testes of 225 male puppies (one injection per testis; two testes per dog) at five investigational sites. The 225 puppies ranged in age from 2½ to 10 months and were of various breeds. After the necessary training, all of the investigators mastered the technique of testicular measurement and intratesticular injection (dorsal cranial). Based on the experience of these investigators in the clinical trial, all veterinarians will be able to easily use this dorsal cranial injection technique.
After at least 6 months of follow-up, semen analysis and physical examination were performed as the primary indicators of clinical trial efficacy.

testis = assay: Example 2: beagle puppy injected in each testis, testes excised at 30 months; assay type: in vivo, beagle dog; conditions: 0.25 ml per testis (13.1 mg/ml zinc), dorsal cranial, injected at six months, sacrificed at 30 months; control 6.8 g
Method: A beagle puppy weighing 19 lbs at six months of age was injected in each testis with 0.25 ml of a chemical sterilant containing 13.1 mg/ml of zinc as zinc gluconate neutralized by 34.8 mg/ml of l-arginine with the pH adjusted to 7.0 with hydrochloric acid. The injection was into the dorsal cranial portion of the testis as could best be estimated externally.
The treated animal was sacrificed at 30 months of age when he weighed 31 lbs. The testes were excised and each weighed 3.5 g.
A control beagle weighing 18 lbs at six months was housed with the treated animal. This animal was also sacrificed at 30 months. The control dog weighed 30 lbs and each testis weighed 6.8 g. A histological section of the rete testis of the control animal was taken and a light micrograph of the section at 10× is shown in FIG. 2.

[5] = system: testes of male Beagle puppies; assay: Example 5: semen analysis of Beagle puppies; assay type: in vivo, Beagle dog
Method: as §1
Semen analysis was performed on a monthly basis for […]. Semen analysis at 24 months post-injection indicated the following.

serum testosterone = assay: Example 5: serum testosterone level in Beagle puppies; assay type: in vivo, Beagle dog; conditions: twelve months post-injection
Method: as §1, §2

testes of a male pig = assay: Example 3: pattern of testicular shrinkage after intratesticular injection in male pig; assay type: in vivo; conditions: 1 ml of 10% by weight solution per testis
[6] = dorsal cranial injection, two months
[7] = Total of all six doses, n = 225
[8] = 25 mg per testis, 24 months post-injection, n = 10
[9] = 25 mg per testis, the 10% of dogs with severe oligospermia, 24 months

Compound: zinc gluconate neutralized by arginine
- Basement Membrane, Average ([1]; 25 mg per testis): 4.80 μm
- Basement Membrane, Left ([1]; 25 mg per testis): 5.00 μm
- Basement Membrane, Right ([1]; 25 mg per testis): 4.59 μm
- Diameter of Seminiferous Tubule, Average ([1]; 25 mg per testis): 124.00 μm
- Diameter of Seminiferous Tubule, Left ([1]; 25 mg per testis): 116.0 μm
- Diameter of Seminiferous Tubule, Right ([1]; 25 mg per testis): 132.0 μm
- Height of Germinal Epithelium, Average ([1]; 25 mg per testis): 14.10 μm
- Height of Germinal Epithelium, Left ([1]; 25 mg per testis): 11.8 μm
- Height of Germinal Epithelium, Right ([1]; 25 mg per testis): 16.4 μm
- Basement Membrane, Average ([1]; 30 mg per testis): 5.53 μm
- Basement Membrane, Left ([1]; 30 mg per testis): 5.50 μm
- Basement Membrane, Right ([1]; 30 mg per testis): 5.57 μm
- Diameter of Seminiferous Tubule, Average ([1]; 30 mg per testis): 113.75 μm
- Diameter of Seminiferous Tubule, Left ([1]; 30 mg per testis): 115.1 μm
- Diameter of Seminiferous Tubule, Right ([1]; 30 mg per testis): 112.4 μm
- Height of Germinal Epithelium, Average ([1]; 30 mg per testis): 7.20 μm
- Height of Germinal Epithelium, Left ([1]; 30 mg per testis): 5.5 μm
- Height of Germinal Epithelium, Right ([1]; 30 mg per testis): 8.9 μm
- Basement Membrane, Average ([1]; 35 mg per testis): 6.00 μm
- Basement Membrane, Left ([1]; 35 mg per testis): 6.04 μm
- Basement Membrane, Right ([1]; 35 mg per testis): 5.96 μm
- Diameter of Seminiferous Tubule, Average ([1]; 35 mg per testis): 124.05 μm
- Diameter of Seminiferous Tubule, Left ([1]; 35 mg per testis): 124.8 μm
- Diameter of Seminiferous Tubule, Right ([1]; 35 mg per testis): 123.3 μm
- Height of Germinal Epithelium, Average ([1]; 35 mg per testis): 10.30 μm
- Height of Germinal Epithelium, Left ([1]; 35 mg per testis): 9.6 μm
- Height of Germinal Epithelium, Right ([1]; 35 mg per testis): 11.0 μm
- Sperm Concentration of the dog that stayed normal [2]: Normal 70 million/ml
- function of the testes (histopathology) [3, 6]: complete dysfunction in the testes
- sperm in the epididymides [3, 6]: no sperm were found in the epididymides
- infertility/sterility achieved, share of rats ([3]; dorsal cranial injection): 100%
- function of the testes (histopathology) ([3]; midline injection, two months): some parts of the testes were functioning
- share of epididymides in which sperm were found ([3]; midline injection, two months): 30%
- infertility/sterility achieved, share of rats ([3]; midline injection): 70%
- number of the ten dogs that copulated with females (male Beagle puppies; 25 mg per testis): Two
- number of the ten dogs that copulated with females (male Beagle puppies; 30 mg per testis): five
- number of the ten dogs that copulated with females (male Beagle puppies; 35 mg per testis): four
- pregnancy of females after copulation (male Beagle puppies; 25, 30 and 35 mg per testis, control placebo 100% pregnancy rate): no pregnancy occurred
- effect on rectal temperature, complete blood count, blood chemistries [4]: no clinical effect
- body weight ([4]; all dogs): increased
- effect on body homeostasis ([4]; dorsal cranial): None of the treatments affected body homeostasis
- testicular swelling post-injection ([4]; for one week post-injection): transient testicular swelling
- testicular measurement after the first week ([4]; p<0.0001, control placebo increased): decreased significantly
- Aspermia (No Semen Ejaculated), number of puppies (testes of male puppies; [7]): 174
- Azoospermia (No Sperm in Ejaculate), number of puppies (testes of male puppies; [7]): 48
- Necrospermia (Sperm in Ejaculate Are Dead or Motionless), number of puppies (testes of male puppies; [7]): 1
- Oligospermia (Less than 20 Million Sperm per ml), number of puppies (testes of male puppies; [7]): 1
- Sperm in Ejaculate Are Motile, number of puppies (testes of male puppies; [7]): 1
- Aspermia (No Semen Ejaculated), number of puppies (testes of male puppies; dose per testis 0.2 ml): 59
- Azoospermia (No Sperm in Ejaculate), number of puppies (testes of male puppies; dose per testis 0.2 ml): 12
- Necrospermia (Sperm in Ejaculate Are Dead or Motionless), number of puppies (testes of male puppies; dose per testis 0.2 ml): 0
- Oligospermia (Less than 20 Million Sperm per ml), number of puppies (testes of male puppies; dose per testis 0.2 ml): 1
- Sperm in Ejaculate Are Motile, number of puppies (testes of male puppies; dose per testis 0.2 ml): 0
- Aspermia (No Semen Ejaculated), number of puppies (testes of male puppies; dose per testis 0.3 ml): 27
- Azoospermia (No Sperm in Ejaculate), number of puppies (testes of male puppies; dose per testis 0.3 ml): 5
- Necrospermia (Sperm in Ejaculate Are Dead or Motionless), number of puppies (testes of male puppies; dose per testis 0.3 ml): 0
- Oligospermia (Less than 20 Million Sperm per ml), number of puppies (testes of male puppies; dose per testis 0.3 ml): 0
- Sperm in Ejaculate Are Motile, number of puppies (testes of male puppies; dose per testis 0.3 ml): 0
- Aspermia (No Semen Ejaculated), number of puppies (testes of male puppies; dose per testis 0.5 ml): 21
- Azoospermia (No Sperm in Ejaculate), number of puppies (testes of male puppies; dose per testis 0.5 ml): 7
- Necrospermia (Sperm in Ejaculate Are Dead or Motionless), number of puppies (testes of male puppies; dose per testis 0.5 ml): 0
- Oligospermia (Less than 20 Million Sperm per ml), number of puppies (testes of male puppies; dose per testis 0.5 ml): 0
- Sperm in Ejaculate Are Motile, number of puppies (testes of male puppies; dose per testis 0.5 ml): 1*
- Aspermia (No Semen Ejaculated), number of puppies (testes of male puppies; dose per testis 0.7 ml): 30
- Azoospermia (No Sperm in Ejaculate), number of puppies (testes of male puppies; dose per testis 0.7 ml): 4
- Necrospermia (Sperm in Ejaculate Are Dead or Motionless), number of puppies (testes of male puppies; dose per testis 0.7 ml): 0
- Oligospermia (Less than 20 Million Sperm per ml), number of puppies (testes of male puppies; dose per testis 0.7 ml): 0
- Sperm in Ejaculate Are Motile, number of puppies (testes of male puppies; dose per testis 0.7 ml): 0
- Aspermia (No Semen Ejaculated), number of puppies (testes of male puppies; dose per testis 0.8 ml): 19
- Azoospermia (No Sperm in Ejaculate), number of puppies (testes of male puppies; dose per testis 0.8 ml): 4
- Necrospermia (Sperm in Ejaculate Are Dead or Motionless), number of puppies (testes of male puppies; dose per testis 0.8 ml): 1
- Oligospermia (Less than 20 Million Sperm per ml), number of puppies (testes of male puppies; dose per testis 0.8 ml): 0
- Sperm in Ejaculate Are Motile, number of puppies (testes of male puppies; dose per testis 0.8 ml): 0
- Aspermia (No Semen Ejaculated), number of puppies (testes of male puppies; dose per testis 1.0 ml): 18
- Azoospermia (No Sperm in Ejaculate), number of puppies (testes of male puppies; dose per testis 1.0 ml): 16
- Necrospermia (Sperm in Ejaculate Are Dead or Motionless), number of puppies (testes of male puppies; dose per testis 1.0 ml): 0
- Oligospermia (Less than 20 Million Sperm per ml), number of puppies (testes of male puppies; dose per testis 1.0 ml): 0
- Sperm in Ejaculate Are Motile, number of puppies (testes of male puppies; dose per testis 1.0 ml): 0
- efficacy (infertility/sterility) (testes of male puppies; six different doses, 225 puppies, at least 6 months of follow-up): 99.6%
- number of puppies (of 225) in which infertility/sterility was achieved (testes of male puppies; six different doses, dorsal cranial, at least 6 months of follow-up): 224
- weight of each excised testis (testis): 3.5 g
- share of dogs permanently sterilized (azoospermia or aspermia) [5, 8]: 90%
- share of dogs with severe oligospermia [5, 8]: 10%
- Concentration/ml (×10^6) [5, 9]: 0.01 ×10^6/ml
- Motility [5, 9]: 1.00%
- Normal Sperm [5, 9]: 6.70%
- Volume of Ejaculation [5, 9]: 0.74 mL
- share of dogs permanently sterilized (azoospermia or aspermia) ([5]; 30 mg per testis, 24 months post-injection, n = 10): 100%
- share of dogs permanently sterilized (azoospermia or aspermia) ([5]; 35 mg per testis, 24 months post-injection, n = 10): 100%
- overall outcome of one intratesticular injection ([5]; dorsal cranial area, male puppies): permanent sterilization
- decrease of serum testosterone level compared to control placebo (serum testosterone; 25 mg per testis): 43%
- decrease of serum testosterone level compared to control placebo (serum testosterone; 30 mg per testis): 55%
- decrease of serum testosterone level compared to control placebo (serum testosterone; 35 mg per testis): 52%

Compound: N=C(N)NCCC[C@H](N)C(=O)O.[Zn] [zinc arginine]
- pattern of testicular shrinkage (testes of a male pig; injection at the dorsal cranial area (FIG. 5)): proportional shrinkage
- pattern of testicular shrinkage (testes of a male pig; injection at the midline (FIG. 4)): disproportional shrinkage
